Test results taken from patent US11185075B2, “Herbicidal phenyltriazolinones” (BASF SE, priority 2016, dated 2021).

What was measured:
Assay type in all cases: in vivo
Amaranthus retroflexus = assay: greenhouse pre-emergence herbicidal test; conditions: 16 g/ha, scale from 0 to 100
Excerpt: (§1) The seeds of the test plants were sown separately for each species. For the pre-emergence treatment, the active ingredients, which had been suspended or emulsified in water, were applied directly after sowing by means of finely distributing nozzles. The containers were irrigated gently to promote germination and growth and subsequently covered with transparent plastic hoods until the plants had rooted. This cover caused uniform germination of the test plants, unless this had been impaired by the active ingredients. Depending on the species, the plants were kept at 10-25° C. or 20-35° C., respectively. The test period extended over 2 to 4 weeks. During this time, the plants were tended, and their response to the individual treatments was evaluated. Evaluation was carried out using a scale from 0 to 100. 100 means no emergence of the plants, or complete destruction of at least the aerial moieties, and 0 means no damage, or normal course of growth. A good herbicidal activity is given at values of at least 70 and a very good herbicidal activity is given at values of at least 85.

Setaria faberi = assay: greenhouse pre-emergence herbicidal test; conditions: 16 g/ha, scale from 0 to 100
Excerpt: as §1

Alopecurus myosuroides = assay: greenhouse post-emergence herbicidal test; conditions: scale from 0 to 100
Excerpt: (§2) The seeds of the test plants were sown separately for each species. For the post-emergence treatment, the test plants were first grown to a height of 3 to 15 cm, depending on the plant habit, and only then treated with the active ingredients which had been suspended or emulsified in water. For this purpose, the test plants were either sown directly and grown in the same containers, or they were first grown separately as seedlings and transplanted into the test containers a few days prior to treatment. Depending on the species, the plants were kept at 10-25° C. or 20-35° C., respectively. The test period extended over 2 to 4 weeks. During this time, the plants were tended, and their response to the individual treatments was evaluated. Evaluation was carried out using a scale from 0 to 100. 100 means no emergence of the plants, or complete destruction of at least the aerial moieties, and 0 means no damage, or normal course of growth. A good herbicidal activity is given at values of at least 70 and a very good herbicidal activity is given at values of at least 85.

Avena fatua = assay: greenhouse post-emergence herbicidal test; conditions: 16 g/ha, scale from 0 to 100
Excerpt: as §2

Lolium multiflorum = assay: greenhouse post-emergence herbicidal test; conditions: 4 g/ha, scale from 0 to 100
Excerpt: as §2

CCOC(=O)COc1ccccc1Oc1cc(-n2nc(C)n(C(F)F)c2=O)c(F)cc1Cl [Example 3, Ethyl 2-[2-[2-chloro-5-[4-(difluoromethyl)-3-methyl-5-oxo-1,2,4-triazol-1-yl]-4-fluoro-phenoxy]phenoxy]acetate]
damages, Amaranthus retroflexus (Amaranthus retroflexus): 85
damages, Setaria faberi (Setaria faberi): 85
damages, Alopecurus myosuroides (Alopecurus myosuroides; 4 g/ha): 70
damages, Alopecurus myosuroides (Alopecurus myosuroides; 16 g/ha): 95
damages, Avena fatua (Avena fatua): 70
damages, Lolium multiflorum (Lolium multiflorum): 90

CCOC(=O)COc1ccc(Oc2cc(-n3nc(C)n(C(F)F)c3=O)c(F)cc2Cl)cc1 [compound B]
damages, Amaranthus retroflexus (Amaranthus retroflexus): 45
damages, Setaria faberi (Setaria faberi): 0
damages, Alopecurus myosuroides (Alopecurus myosuroides; 4 g/ha): 30
damages, Lolium multiflorum (Lolium multiflorum): 70

CCOC(=O)COc1cccc(Oc2cc(-n3nc(C)n(C(F)F)c3=O)c(F)cc2Cl)c1 [compound A]
damages, Amaranthus retroflexus (Amaranthus retroflexus): 45
damages, Setaria faberi (Setaria faberi): 0
damages, Alopecurus myosuroides (Alopecurus myosuroides; 16 g/ha): 55
damages, Avena fatua (Avena fatua): 20
